Experimental data published in patent publication US4495201A, “Pharmaceutical composition and method for treating heart diseases therewith” (Institut Organicheskoi Khimii Imeni N.D. Zelinskogo, priority 1982, dated 1985).

Columns and labels:
Solubility and stability = assay type: physicochemical
[1] = tested on: zone of necrosis, perinecrotic zone and myocardium regions spaced from the place of infarction; assay: Experimental myocardial infarction in rabbits: histological, histochemical and electron-microscopic study; assay type: in vivo, rabbits of the Chinchilla variety; details: for effect on reparative processes in the zone of necrosis / organization of the post-infarction scar: comparison of preparations; for activity of lysis-ensuring enzymes: zone of necrosis and perinecrotic areas
Text: The experiment on animals has been performed on 419 rabbits of the Chinchilla variety with experimentally-induced myocardial infarction produced by ligation of the front descending branch of the coronary artery.
The effect of the composition according to the present invention on the progress of the experimental myocardial infarction has been studied in comparison with the effect produced by inosine, potassium orotate, vitamin B12 with folic acid and retabolyl.
Histological, histochemical and electron-microscopic methods of investigation have been employed to study the zone of necrosis, perinecrotic zone and myocardium regions spaced from the place of infarction by 1, 3 and 7 days after operation. Furthermore, to determine the contractile ability of myocardium, measurements of intracavitary pressure have been performed. Dynamic electrocardiographic observation over the animals was carried out 7 times during the first day (prior to operation, 15, 30 minutes, 1, 2, 3 and 4 hours after the administration) and during the following days two times a day (before and one hour after the administration).
The study of the total cross-sectional patterns of a rabbit's heart has made it possible to precisely define these zones.
The first group of rabbits has been intramuscularly injected with the composition according to the present invention in the dose of 1 mg/kg in a day.
The second group of rabbits has been injected with inosine in a dose of 30 mg/kg intravenously daily once a day; for the first time 16 hours after the operation and for the last time 2 hours before slaughter (i.e. before the 7th day). The third group of rabbits has been given potassium orotate in a dose of 30 mg/kg in the same sequence as the previous preparation, i.e. up to the 7th day.
The fourth group of animals has been administered vitamin B12 3γ/kg in combination with folic acid in the same sequence.
The fifth group of rabbits has been administered an anabilic hormone of a prolonged action--retabolyl in a dose of 5 mg/kg of the bodyweight 1-2 times intramuscularly up to the 7th day.

[2] = tested on: left ventricle of the heart; assay: Intracardiac hemodynamics (intracavitary pressure); assay type: in vivo, rabbits; details: versus the composition
central hemodynamics = assay: Central hemodynamics by radiocardiography in patients with myocardial infarction; assay type: in vivo; details: as compared to the control
Experimental: (§1) The composition according to the present invention is administered to the patients intramuscularly in a dose of from 25 to 50 mg once every three days.
On the 1th, 10th, 20th and 40th days of the disease the central hemodynamics was determined by the method of radiocardiography.

[3] = tested on: insufficiency of blood circulation and post-infarctional aneurysm; assay: Clinical outcome: insufficiency of blood circulation and post-infarction aneurysm; assay type: in vivo, patients; details: comparison of the composition and inosine
Experimental: as §1
A further dynamic electrocardiographic observation is effected during the first day of injection of the composition (prior to injection and 1 and 2 hours thereafter), then once per 3 and later on--per 5 days. On the 1th, 10th, 20th and 40th days of the disease the central hemodynamics was determined by the method of radiocardiography. On the 10th and 40th days of the illness the contractile capacity of myocardium is assessed by methods of electro- and X-ray kymography. The biochemical control over the effect of the preparation was effected by determination, in dynamics in blood serum, of the products of decomposition of DNA, proline, hydroxyproline, transaminases. There was also analyzed the dynamics of normalization of leukocytosis, ESR (erythrocyte sedimentation rate), disappearance of aneosinophilia. The careful clinical assessment of the effect of the composition was also performed.

In the case of `CC(C)=CCCC(C)=CCC(CCCN(C)C)C(=O)O` (stereo not shown) [4',5,9-trimethyl-2-(4'-aza-pentyl)decadi-4,8-ene acid], the “solubility in aqueous solutions of strong acids, alkalis, diluted solutions of salts” value (Solubility and stability) is reported as “well soluble”, the “solubility in fats and vegetable oils” value (Solubility and stability) is reported as “well soluble” and the “solubility in organic solvents (ethanol, ether, acetone, gasoline, benzene)” value (Solubility and stability) is reported as “well soluble”. The solubility in water (Solubility and stability) was “well soluble”, the “stability of aqueous solutions” value (Solubility and stability; aqueous solutions) was “transparent, stable and can be sterilized by conventional methods” and the stability in storage (Solubility and stability; not more than 25° C., advisable period two years) was “stable in storage”.
For `O=c1[nH]cnc2c1ncn2[C@@H]1O[C@H](CO)[C@@H](O)[C@H]1O` [inosine, hypoxanthine riboside], the “cellular infiltration of the zone of necrosis” value [1] was “enhanced cellular infiltration of the zone of infarction”, the “effect on reparative processes in the zone of necrosis / organization of the post-infarction scar” value [1] was “substantially less pronounced than the effect of the preparation according to the present invention” and the “activity of lysis-ensuring enzymes” value [1] was “increasing activity of lysis-ensuring enzymes is limited only to the zone of necrosis”. The “effect on formation of compensatory hyperfunction and hypertrophy of extrainfarction areas” value [2] was “more marked effect”, the “regaining of hemodynamic characteristics (cardiac and systolic indices, beat work of the heart)” value (central hemodynamics) was “more pronounced and earlier regaining” and the “patients in whom effect on state of blood circulation is greatest” value [3] was “most pronounced effect on the state of blood circulation in patients with a repeated myocardial infarction”.
For `O=C(O)c1cc(O)nc(O)n1` [potassium orotate, 2,6-dihydroxypyrimidine-4-carboxylic acid], the “activity of lactatedehydrogenase in extra-infarction areas of myocardium” value [1] was “slightly less pronounced effect”, the “effect on reparative processes in the zone of necrosis / organization of the post-infarction scar” value [1] was “still less pronounced effect” and the “activity of reactions of pentose-phosphate shunt (glucoso-6-phosphatehydrogenase)” value ([1]; perinecrotic areas of myocardium) was “slightly increasing activity”. For the same compound, the “activity of lysis-ensuring enzymes” value [1] was “slightly increasing activity” and the “effect on formation of compensatory hyperfunction and hypertrophy of extrainfarction areas” value [2] was “more marked effect”.
With `CCCCCCCCCC(=O)O[C@H]1CC[C@H]2[C@@H]3CCC4=CC(=O)CC[C@@H]4[C@H]3CC[C@]12C` [retabolyl, nandrolone decanoate] the “activity of lactatedehydrogenase in extra-infarction areas of myocardium” value [1] was “slightly less pronounced effect” and the “effect on reparative processes in the zone of necrosis / organization of the post-infarction scar” value [1] was “less pronounced”.
